In series [1] the target is Voltage-gated inwardly rectifying potassium channel KCNH2 (Homo sapiens, UniProt Q12809). Nature of the series: Inhibition of hERG cardiac ion channel. It counts as toxicity. In general terms: Block of hERG is tested as a sign of cardiac risk.
In the next series the target is T1, CYP2B6 (Homo sapiens, UniProt P20813).
T1 sequence (P20813 whole entry): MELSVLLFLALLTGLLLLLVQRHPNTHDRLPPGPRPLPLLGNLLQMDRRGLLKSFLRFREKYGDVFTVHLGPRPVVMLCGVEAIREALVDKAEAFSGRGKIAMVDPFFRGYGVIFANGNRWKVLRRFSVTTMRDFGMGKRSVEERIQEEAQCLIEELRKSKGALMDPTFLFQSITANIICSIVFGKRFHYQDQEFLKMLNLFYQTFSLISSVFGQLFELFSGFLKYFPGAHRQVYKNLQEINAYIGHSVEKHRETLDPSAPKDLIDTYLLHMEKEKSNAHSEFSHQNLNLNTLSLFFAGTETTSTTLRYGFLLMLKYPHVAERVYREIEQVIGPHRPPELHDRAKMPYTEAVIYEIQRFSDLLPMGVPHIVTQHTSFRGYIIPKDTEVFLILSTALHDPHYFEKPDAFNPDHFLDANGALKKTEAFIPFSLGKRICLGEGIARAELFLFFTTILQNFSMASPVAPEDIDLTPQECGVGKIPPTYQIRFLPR
Nature of the series: Activation of CYP2B6 in human hepatocyte using bupropion as substrate preincubated for 5 days followed by substrate addition and measured after 1 hr by LC-MS/MS analysis relative to control. It counts as ADME, cell-based. To be noted: hepatocytes, probe bupropion, time 121 hrs.

The nature of series [2]: Terminal unbound brain concentration in rat model of amphetamine-induced hyperlocomotion activity at 1 to 10 mg/kg, po measured after 1.5 hrs. To be noted: in vivo, dose 1-10 mg/kg. The series is classed as ADME, organism-based.

The values that follow come from ChEMBL document CHEMBL5252536, “Discovery of VU0467485/AZ13713945: An M4 PAM Evaluated as a Preclinical Candidate for the Treatment of Schizophrenia” (ACS Med Chem Lett, 2017).

Broadly, the IC50 is the concentration needed to halve the response being measured. A low value points to greater potency. In general, Emax refers to the greatest response seen or fitted, relative to the assay's reference.

Sequence of Voltage-gated inwardly rectifying potassium channel KCNH2 (Q12809 whole entry): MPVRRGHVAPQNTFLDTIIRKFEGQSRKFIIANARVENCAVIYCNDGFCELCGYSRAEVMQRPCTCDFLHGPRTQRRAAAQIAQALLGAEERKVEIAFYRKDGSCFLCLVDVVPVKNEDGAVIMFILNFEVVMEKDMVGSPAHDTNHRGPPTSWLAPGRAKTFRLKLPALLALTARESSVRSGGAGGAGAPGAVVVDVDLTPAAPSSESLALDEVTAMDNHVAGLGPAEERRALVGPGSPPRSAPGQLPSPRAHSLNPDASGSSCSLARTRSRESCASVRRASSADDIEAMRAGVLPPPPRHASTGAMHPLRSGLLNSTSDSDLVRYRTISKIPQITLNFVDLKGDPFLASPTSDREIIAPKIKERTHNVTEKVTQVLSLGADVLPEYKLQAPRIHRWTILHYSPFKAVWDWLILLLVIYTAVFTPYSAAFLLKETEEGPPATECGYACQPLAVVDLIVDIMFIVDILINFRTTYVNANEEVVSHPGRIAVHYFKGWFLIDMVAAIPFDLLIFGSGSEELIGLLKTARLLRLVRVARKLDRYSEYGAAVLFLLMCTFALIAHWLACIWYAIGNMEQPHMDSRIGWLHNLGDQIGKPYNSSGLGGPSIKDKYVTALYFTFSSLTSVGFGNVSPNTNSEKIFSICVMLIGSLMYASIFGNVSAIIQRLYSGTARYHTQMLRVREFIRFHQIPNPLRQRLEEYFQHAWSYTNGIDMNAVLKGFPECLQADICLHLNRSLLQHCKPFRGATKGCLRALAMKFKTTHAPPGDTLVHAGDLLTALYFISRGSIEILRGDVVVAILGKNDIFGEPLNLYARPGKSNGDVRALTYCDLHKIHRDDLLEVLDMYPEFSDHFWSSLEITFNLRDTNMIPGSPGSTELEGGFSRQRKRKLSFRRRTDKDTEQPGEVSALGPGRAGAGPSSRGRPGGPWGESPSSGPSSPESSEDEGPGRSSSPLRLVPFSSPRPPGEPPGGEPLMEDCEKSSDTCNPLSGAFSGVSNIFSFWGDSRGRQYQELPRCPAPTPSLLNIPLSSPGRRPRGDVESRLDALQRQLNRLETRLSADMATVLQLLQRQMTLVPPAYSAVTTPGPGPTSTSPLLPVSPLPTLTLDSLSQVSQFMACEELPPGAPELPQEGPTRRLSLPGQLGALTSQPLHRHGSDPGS

Take `COc1ccc(CNC(=O)c2sc3nnc(C)c(C)c3c2N)cc1F`: in series [1], the IC50 was > 33 µM. At CYP2B6, the Emax at 1 h was ≤ 1%. Also, the “Drug uptake(free)” value in series [2] worked out at 0.02 µM.
